For 85 molecules, EC50 results are on record in PubChem BioAssay AID1959 (Broad Institute, 2009).

pEC50: −log10 of the molar value. Activity calls are given as the source filed them.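 How the source made its calls: active means growth-inhibition EC50 no more than tenfold above the top tested dose; inconclusive means flat fit between 30% and 70% inhibition, or unreliable fit; inactive means EC50 more than tenfold above the top tested dose.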

For the assay, the system named is E. coli NEB5alpha growth, BacTiter-Glo luminescence, 4 h. As to the kind of experiment: Escherichia coli growth inhibition, dose response, counter-screen for MEX-5/POS-1 RNA-binding inhibitor project, luminescence, NEB5alpha (AID 1959).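 Further: pUC19-transformed ampicillin-resistant cells grown in LB with ampicillin.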 For orientation: Counterscreens check selectivity or assay interference.
By EC50 is commonly meant the concentration needed to bring the measured effect to its halfway point. Regarding `CC1(OC(=O)c2cccs2)C(=O)C=C2C=C(C3CC3)OC=C2C1=O` (stereo not given), the EC50 was > 11 µM (inactive). The same measure, in the same setting: the value for `CC1CN(c2nc3ccccc3nc2C(C#N)C(=O)NC2CCCCC2)CC(C)O1` (stereo not given) was > 11 µM (inactive). With `ClCc1nc2ccccc2n1Cc1ccccc1`, the EC50 was > 11 µM (inactive).

Turning to `CCCSc1nnc(N2C(=O)C(O)=C(C(=O)c3ccco3)C2c2ccccc2F)s1` (stereo not given), the EC50 was > 11 µM (inactive). Still for that read-out and setting: the value for `Cc1ccc(S(=O)(=O)Nc2ccccc2F)cc1C(=O)NNC(=O)c1csc(N2CCOCC2)n1` was > 11 µM (inactive).

Regarding `CCc1ccc(N2C(=O)NC(=O)/C(=C\c3cc(C)n(-c4cc(C(=O)O)cc(C(=O)O)c4)c3C)C2=O)cc1`, the EC50 was > 11 µM (inactive). The pEC50 is the EC50 on a negative log10 scale, so that one unit is a factor of ten. In the case of `C[C@H]1c2cccc(O)c2C(O)=C2C(=O)[C@]3(O)C(O)=C(C(N)=O)C(=O)[C@@H](N(C)C)[C@@H]3[C@@H](O)[C@@H]21`, the pEC50 is 5.33. As to `NC(=O)C[n+]1cccc2ccccc21`, the EC50 was > 11 µM (inactive). Same read-out and setting: next, `O=C(N/N=C/c1c(O)n(CCc2ccccc2)c(=O)[nH]c1=O)c1ccccc1O`: > 11 µM (inactive); `O=C(O)CCc1ccc(-c2cccs2)n1-c1ccc(C(=O)O)cc1`: > 11 µM (inactive). Still for that read-out and setting: next, `CCCCn1c(O)c(C(=O)/C=C/c2ccc3c(c2)OCO3)c(=O)[nH]c1=O`: > 11 µM (inactive). Still for that read-out and setting: the value for `O=C1C2=C(SCCS2)C(=O)N1c1ccccc1` was > 11 µM (inactive); that for `Cc1cccc(-n2c(C)cc(C=C3C(=O)c4ccccc4C3=O)c2C)c1` was > 11 µM (inactive); that for `Cc1cc(O)c(C(C)C)cc1N=C1CSC(=O)N1` was > 11 µM (inactive). On to `Nc1nnc(C(=O)c2ccccc2N)s1`, for which the EC50 was > 11 µM (inactive). As for `O/C=c1\ccc2cccc3nc(C(F)(F)F)nc1c23`, the EC50 is > 11 µM (inactive). The same measure, in the same setting: next, `CN1c2ccc(C=O)c3c(C=O)ccc(c23)N(C)C1(C)C`: > 11 µM (inactive); `N#Cc1c(-c2ccc(Cl)cc2)c2c([nH]c1=O)-c1ccccc1OC2`: > 11 µM (inactive). For the molecule `NC(=O)c1sc2nnc(-c3ccccc3)c(-c3ccccc3)c2c1N`, the EC50 was > 11 µM (inactive). Turning to `CC(=O)N=c1c(C#N)cc2c(=O)n3cccc(C)c3nc2n1CCCOC(C)C`, the EC50 was > 11 µM (inactive). On to `Cc1ccc(C(=O)C2=C(O)C(=O)N(Cc3ccco3)C2c2ccc(N(C)C)cc2)o1` (stereo not given), for which the EC50 is > 11 µM (inactive). For the molecule `O=C(O)c1ccccc1-c1ccc(C=C2C(=O)N(c3ccccc3)C(=S)N(c3ccccc3)C2=O)o1`, the EC50 was > 11 µM (inactive). For `COc1ccc(CNC(=O)COC(=O)c2cc(-c3ccc(Cl)s3)nc3ccccc23)cc1`, the EC50 is > 11 µM (inactive). Take `COc1cc(C2C(C#N)=C(N)OC3=C2C(=O)CC(C)(C)C3)cc2c1OCO2` (stereo not given): the EC50 was > 11 µM (inactive).

In the case of `N#Cc1c(N)nc(SCc2ccccc2)c(C#N)c1-c1ccco1`, the EC50 is > 11 µM (inactive). On the same count and under the same terms, next, `COc1cc(/C=N/Nc2nc(=O)[nH]nc2C)ccc1O`: > 11 µM (inactive). The same measure, in the same setting: the value for `O=C(c1ccc(Br)o1)N1CCN=C1SCc1cccc(F)c1` was > 11 µM (inactive). Same read-out and setting: next, `CCCCCCn1c(O)c(C=NCCCn2ccnc2)c(=O)[nH]c1=O`: > 11 µM (inactive); `CN1C(=O)C(=Cc2cn(CC(=O)N3CCCC3)c3ccccc23)C(=O)N(C)C1=O`: > 11 µM (inactive). Take `N#Cc1ccccc1CN1C(=O)S/C(=C/c2cccn2-c2ccc(C(=O)O)cc2)C1=O`: the EC50 is > 11 µM (inactive). Still for that read-out and setting: next, `CCOc1cc2c(cc1/C=C(/C#N)c1ccc(C(=O)O)cc1)OCO2`: > 11 µM (inactive); `O=C(NNC(=O)c1ccccc1O)c1cccc(Br)c1`: > 11 µM (inactive); `CCn1c(C)cc(=S)c2ccccc21`: > 11 µM (inactive). Regarding `Oc1ccc(C[C@H]2NCCc3cc(O)c(O)cc32)cc1O`, the EC50 was > 11 µM (inactive). For the molecule `Oc1ccc(-c2nc(-c3ccc(O)c(O)c3)cs2)cc1`, the EC50 is > 11 µM (inactive). On the same count and under the same terms, next, `CCOC(=O)c1ccc(-n2c(C)ccc2C)cc1`: > 11 µM (inactive); `COc1cccc(C(=O)NNc2nc(C)cc(C)n2)c1`: > 11 µM (inactive). On the same count and under the same terms, next, `COc1cccc(C(=O)NCC2CCN(c3ccc(S(=O)(=O)N4CCOCC4)cc3)CC2)c1`: > 11 µM (inactive); `CCCCOc1cccc(C2C(C(=O)c3ccc(C)o3)=C(O)C(=O)N2c2nnc(C)s2)c1` (stereo not given): > 11 µM (inactive). The same measure, in the same setting: the value for `Cc1nonc1OCCNCCNc1ccc([N+](=O)[O-])c2cccnc12` was > 11 µM (inactive); that for `Cc1ccc(S(=O)(=O)NNc2nc3ccccc3nc2C(F)(F)F)cc1` was > 11 µM (inactive); that for `COc1ccc(C2C(C#N)=C(N)OC3=C2C(=O)CC(C)(C)C3)c(OC)c1OC` (stereo not given) was > 11 µM (inactive). Consider `COc1ccc(C2C(C#N)=C(N)OC3=C2C(=O)CC(C)(C)C3)c([N+](=O)[O-])c1OC` (stereo not given), for which the EC50 is > 11 µM (inactive). Same read-out and setting: the value for `COC(=O)c1cccc(-n2c(CCC(=O)O)ccc2-c2cccs2)c1` was > 11 µM (inactive). Turning to `O=C(N/N=C/c1c(O)n(CCc2ccc(F)cc2)c(=O)[nH]c1=O)c1ccccc1`, the EC50 is > 11 µM (inactive).

Consider `O=C(CCN1C(=O)/C(=C\C=C\c2ccccc2)SC1=S)Nc1ccc(C(=O)O)cc1`, for which the EC50 was > 11 µM (inactive). Regarding `Cc1cc(/C=C2\C(=O)NC(=O)N(c3ccc(Br)cc3)C2=O)c(C)n1-c1cc(C(=O)O)cc(C(=O)O)c1`, the EC50 is > 11 µM (inactive). Still for that read-out and setting: next, `S=C(NCc1ccncc1)Nc1ccc(Cl)cc1Cl`: > 11 µM (inactive). Same read-out and setting: the value for `Oc1ccc(-c2cn3c(n2)SCC3)cc1O` was > 11 µM (inactive); that for `CCOc1cc(C(c2c(C)[nH][nH]c2=O)c2c(C)[nH][nH]c2=O)ccc1O` was > 11 µM (inactive); that for `CCCn1cc2c3c(cccc31)C1CC(C)CN(C)C1C2` (stereo not given) was > 11 µM (inactive). Take `C[C@@H]1Cc2c(O)c(O)cc(O)c2C(=O)O1`: the EC50 is > 11 µM (inactive).

Take `CCOc1ccc2c(c1)/C(=C(\C(Cl)=C(Cl)Cl)[N+](=O)[O-])N2`: the EC50 is > 11 µM (inactive). The same measure, in the same setting: next, `Nc1ccc(Nc2ccccc2)c(S(=O)(=O)O)c1`: > 11 µM (inactive). Still for that read-out and setting: next, `Cc1ccc(C)c(N(C)C(=O)c2coc(=O)c3ccccc23)c1`: > 11 µM (inactive); `Cc1cc(/C=C2/C(=O)NC(=O)N(c3ccc(Br)cc3)C2=O)c(C)n1C`: > 11 µM (inactive); `COc1ccc(C2OC34CCCCC3C(C#N)(C#N)C2(C#N)C(=N)O4)cc1` (stereo not given): > 11 µM (inactive). Consider `CCN1C(=O)NC(=O)/C(=C\c2cn(CC(=O)O)c3ccccc23)C1=O`, for which the EC50 was > 11 µM (inactive). In the case of `CCN1/C(=C2/SC(=S)N(NC(C)=O)C2=O)Sc2ccccc21`, the EC50 was > 11 µM (inactive). The same measure, in the same setting: next, `O=C(N/N=C\c1ccc(-c2ccc(Cl)c(Cl)c2)o1)C(=O)N1CCCC1`: > 11 µM (inactive).

Regarding `Cc1nnc(N2C(=O)C(O)=C(C(=O)c3ccco3)C2c2ccc(C(C)(C)C)cc2)s1` (stereo not given), the EC50 was > 11 µM (inactive). On the same count and under the same terms, the value for `Oc1[nH]c2ccc(Br)cc2c1N=Nc1nn[nH]n1` was > 11 µM (inactive). Take `COc1ccc(N2C(=O)NC(=O)/C(=C\c3cn(CC(=O)N4CCOCC4)c4ccccc34)C2=O)c(OC)c1`: the EC50 was > 11 µM (inactive). Turning to `CC(/C=C1\N=C(SCc2ccccc2Cl)SC1=O)=C\c1ccccc1`, the EC50 was > 11 µM (inactive). With `O=C(O)c1ccc(-n2c(-c3cc(-c4ccco4)[nH]n3)n[nH]c2=S)cc1`, the EC50 was > 11 µM (inactive).

Take `COc1ccc(NC(=O)c2sc3nc(-c4cccnc4)ccc3c2N)cc1OC`: the EC50 is > 11 µM (inactive).

For `O=C(O)C1Nc2c(C(=O)N3CCOCC3)cccc2C2C=CCC12` (stereo not given), the EC50 is > 11 µM (inactive). The same measure, in the same setting: next, `CS/C(=N\S(=O)(=O)c1cccs1)Nc1cccc(Cl)c1C`: > 11 µM (inactive). With `Cc1cc(/C=C(/C#N)c2nc3ccccc3[nH]2)c(C)n1-c1ccccc1C(=O)O`, the EC50 was > 11 µM (inactive). The same measure, in the same setting: next, `Cc1ccc(S(=O)(=O)N2CCOCC2)cc1C(=O)Nc1ccc(S(=O)(=O)Nc2nccs2)cc1`: > 11 µM (inactive); `O=S(=O)(c1cccc(-c2csc(-c3cccnc3)n2)c1)N1CCOCC1`: > 11 µM (inactive). On to `N=c1c(S(=O)(=O)c2ccc(Cl)cc2)cc2c(=O)n3ccccc3nc2n1C1CCCCC1`, for which the EC50 is > 11 µM (inactive). The same measure, in the same setting: next, `O=C1N=C(N2CCOCC2)S/C1=C\c1ccc(-c2ccccc2Cl)o1`: > 11 µM (inactive); `O=[N+]([O-])c1ccc(/C=N/n2cnc3ccccc32)s1`: > 11 µM (inactive).

For `Cc1ccc(-c2nc(C=Nc3ccc(O)cc3)c(O)o2)cc1`, the EC50 is > 11 µM (inactive). Turning to `Clc1ccc(C2=CC(c3ccco3)n3ncnc3N2)cc1` (stereo not given), the EC50 is > 11 µM (inactive). The same measure, in the same setting: the value for `CC(=C\c1ccco1)/C=C1/SC(=S)N(CC(=O)O)C1=O` was > 11 µM (inactive); that for `CC1(OC(=O)c2ccco2)C(=O)C=C2C=C(c3ccc(C#N)cc3)OC=C2C1=O` (stereo not given) was > 11 µM (inactive). On the same count and under the same terms, the value for `Cc1ccc([N+](=O)[O-])cc1S(=O)(=O)Nc1ccc(O)c(Sc2ncn[nH]2)c1` was > 11 µM (inactive); that for `COc1ccc(-c2cn[nH]c2-c2ccc(OCC(=O)NN)cc2O)cc1OC` was > 11 µM (inactive); that for `Cc1ccc(/C=C2\C(=O)NC(=S)N(c3ccc(F)cc3)C2=O)o1` was > 11 µM (inactive).

With `Cc1c(N=C2Nc3cccc4cccc2c34)c(=O)n(-c2ccccc2)n1C`, the EC50 is > 11 µM (inactive). Still for that read-out and setting: next, `COC(=O)/C(C#N)=C/c1c(Oc2cc(C)cc(C)c2)nc2c(C)cccn2c1=O`: > 11 µM (inactive); `CN(C)CCCN=Cc1c(O)n(CCc2ccc(F)cc2)c(=O)[nH]c1=O`: > 11 µM (inactive).

Turning to `O=C1C=CC(=O)C(C2=C3C(=O)N(CCc4ccccc4)CC(=O)N3CCC2)=C1`, the EC50 was > 11 µM (inactive).
